Measured values: US9849136B2, “Thiazole and oxazole-substituted arylamides as P2X3 and P2X2/3 antagonists” (Roche Palo Alto LLC, priority 2006, dated 2017)

How the values were obtained:
[1] = target: T1, human P2X2/3 receptor (Homo sapiens, UniProt P56373+Q9UBL9); assay: P2X2/3 FLIPR (Fluorometric Imaging Plate Reader) assay; type: cell-based; conditions: CHO-K1 cells transfected with human P2X2/3; agonist α,β-meATP 5 μM; Fluo-3 calcium fluorescence
T1 construct: expressed in transfected cells; host or cells: CHO-K1
T1 sequence (Q9UBL9 1-471): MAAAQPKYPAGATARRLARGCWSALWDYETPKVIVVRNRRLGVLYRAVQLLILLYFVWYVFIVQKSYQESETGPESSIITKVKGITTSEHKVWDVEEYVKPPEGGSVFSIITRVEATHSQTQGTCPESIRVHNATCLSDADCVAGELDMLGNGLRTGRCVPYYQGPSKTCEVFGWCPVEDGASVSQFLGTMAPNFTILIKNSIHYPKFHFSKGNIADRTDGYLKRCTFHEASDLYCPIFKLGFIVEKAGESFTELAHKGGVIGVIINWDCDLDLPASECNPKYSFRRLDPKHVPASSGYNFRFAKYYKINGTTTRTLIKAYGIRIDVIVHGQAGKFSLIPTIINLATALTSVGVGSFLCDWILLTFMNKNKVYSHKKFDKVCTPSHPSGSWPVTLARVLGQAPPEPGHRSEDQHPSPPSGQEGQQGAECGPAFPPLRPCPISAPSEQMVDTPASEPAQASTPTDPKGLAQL
T1 sequence (P56373 1-397): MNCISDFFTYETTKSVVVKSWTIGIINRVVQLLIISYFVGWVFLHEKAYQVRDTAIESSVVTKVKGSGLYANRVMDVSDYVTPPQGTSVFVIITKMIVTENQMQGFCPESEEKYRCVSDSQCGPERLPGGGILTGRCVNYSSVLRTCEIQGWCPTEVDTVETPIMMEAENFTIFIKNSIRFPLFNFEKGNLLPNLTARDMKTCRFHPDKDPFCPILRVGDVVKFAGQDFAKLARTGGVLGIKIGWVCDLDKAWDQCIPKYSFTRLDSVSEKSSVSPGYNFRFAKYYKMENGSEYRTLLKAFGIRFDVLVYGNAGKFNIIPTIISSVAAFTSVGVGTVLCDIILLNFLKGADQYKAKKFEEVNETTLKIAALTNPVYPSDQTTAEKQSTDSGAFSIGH
Description: (§1) CHO-Kl cells were transfected with cloned rat P2X3 or human P2X2/3 receptor subunits and passaged in flasks. 18-24 hours before the FLIPR experiment, cells were released from their flasks, centrifuged, and resuspended in nutrient medium at 2.5×10^5 cells/ml. The cells were aliquoted into black-walled 96-well plates at a density of 50,000 cells/well and incubated overnight in 5% CO2 at 37° C. On the day of the experiment, cells were washed in FLIPR buffer (calcium- and magnesium-free Hank's balanced salt solution, 10 mM HEPES, 2 mM CaCl2, 2.5 mM probenecid; FB). Each well received 100 μl FB and 100 μl of the fluorescent dye Fluo-3 AM [2 μM final conc.]. […]
(§2) Test compounds (dissolved in DMSO at 10 mM and serially diluted with FB) or vehicle were added to each well (25 μl of a 4× solution) and allowed to equilibrate for 20 minutes at room temperature. The plates were then placed in the FLIPR and a baseline fluorescence measurement (excitation at 488 nm and emission at 510-570 nm) was obtained for 10 seconds before a 100 μl/well agonist or vehicle addition. […] Fluorescence was measured for an additional 2 minutes at 1 second intervals after agonist addition. A final addition of ionomycin (5 μM, final concentration) was made to each well of the FLIPR test plate to establish cell viability and maximum fluorescence of dye-bound cytosolic calcium. […]

[2] = target: T2, rat P2X3 receptor (Rattus norvegicus, UniProt P49654); assay: P2X3 FLIPR (Fluorometric Imaging Plate Reader) assay; type: cell-based; conditions: CHO-K1 cells transfected with cloned rat P2X3; agonist α,β-meATP 1 μM; Fluo-3 calcium fluorescence
T2 construct: expressed in transfected cells; host or cells: CHO-K1
T2 sequence (P49654 1-397): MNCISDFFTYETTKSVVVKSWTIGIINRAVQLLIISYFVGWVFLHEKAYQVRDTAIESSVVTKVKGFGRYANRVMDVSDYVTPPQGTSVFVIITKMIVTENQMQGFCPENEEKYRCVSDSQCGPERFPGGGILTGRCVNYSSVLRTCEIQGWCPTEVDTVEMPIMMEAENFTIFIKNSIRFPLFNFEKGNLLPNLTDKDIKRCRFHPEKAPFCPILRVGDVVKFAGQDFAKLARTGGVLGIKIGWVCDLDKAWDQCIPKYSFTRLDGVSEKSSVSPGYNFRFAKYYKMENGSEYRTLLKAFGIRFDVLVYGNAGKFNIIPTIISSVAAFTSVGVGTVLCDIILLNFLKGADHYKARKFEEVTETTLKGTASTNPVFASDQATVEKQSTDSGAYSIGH
Description: as §1, §2

| SMILES | pKi for the P2X2/3 receptor [1] | pIC50 for the P2X3 receptor [2] |
| --- | --- | --- |
| Cc1ccc(-c2cc(C(=O)N[C@H](C)CN3CCOCC3)cc(-c3scnc3C)c2)cc1 [Compound 43, (R)-4′-Methyl-5-(4-methyl-thiazol-5-yl)-biphenyl-3-carboxylic acid (1-methyl-2-morpholin-4-yl-ethyl)-amide] | approximately 7.30 | – |
| Cc1ccc(-c2cc(C(=O)N[C@@H](C)CO)cc(-c3scnc3C)c2)cc1 [Compound 45, (S)-4′-Methyl-5-(4-methyl-thiazol-5-yl)-biphenyl-3-carboxylic acid (2-hydroxy-1-methyl-ethyl)-amide] | – | approximately 8.24 |
